Results published in PubChem BioAssay AID1963833 (Molecular Pharmacology Branch, DTP, NCI, 2024).

Test system: 883617-216-R-J1-PDC complex spheroid viability
Assay: Anticancer human tumor 883617-216-R-J1-PDC patient-derived bladder carcinoma cell line growth inhibition [POLQ]
Conditions: for IC50: curve of first compound; for viability, T/C: stronger effect = lower value; active = viability on the fitted dose curve at most 10% of control; inactive = the rest
Method in brief: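 Patient-derived tumour cells were co-cultured with HUVEC and mesenchymal stem cells as multicellular spheroids at 37 °C. They were treated with POLQ inhibitors (novobiocin, ART-558, RP6685) alone or combined with other agents. Top concentrations were at or near clinical Cmax (otherwise 10 microM; SN-38 at 1 microM), decreasing in half-log steps.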

[1] = second compound 0.0316 µM, first compound 0.0316 µM
[2] = second compound 0.0316 µM, first compound 0.1 µM
[3] = second compound 0.0316 µM, first compound 0.316 µM
[4] = second compound 0.0316 µM, first compound 1 µM
[5] = second compound 0.0316 µM, first compound 3.16 µM
[6] = second compound 0.0316 µM, first compound 10 µM
[7] = second compound 0.1 µM, first compound 0.0316 µM
[8] = second compound 0.1 µM, first compound 0.1 µM
[9] = second compound 0.1 µM, first compound 0.316 µM
[10] = second compound 0.1 µM, first compound 1 µM
[11] = second compound 0.1 µM, first compound 3.16 µM
[12] = second compound 0.1 µM, first compound 10 µM
[13] = second compound 0.316 µM, first compound 0.0316 µM
[14] = second compound 0.316 µM, first compound 0.1 µM
[15] = second compound 0.316 µM, first compound 0.316 µM
[16] = second compound 0.316 µM, first compound 1 µM
[17] = second compound 0.316 µM, first compound 3.16 µM
[18] = second compound 0.316 µM, first compound 10 µM
[19] = second compound 1 µM, first compound 0.0316 µM
[20] = second compound 1 µM, first compound 0.1 µM
[21] = second compound 1 µM, first compound 0.316 µM
[22] = second compound 1 µM, first compound 1 µM
[23] = second compound 1 µM, first compound 3.16 µM
[24] = second compound 1 µM, first compound 10 µM
[25] = second compound 3.16 µM, first compound 0.0316 µM
[26] = second compound 3.16 µM, first compound 0.1 µM
[27] = second compound 3.16 µM, first compound 0.316 µM
[28] = second compound 3.16 µM, first compound 1 µM
[29] = second compound 3.16 µM, first compound 3.16 µM
[30] = second compound 3.16 µM, first compound 10 µM
[31] = second compound 10 µM, first compound 0.0316 µM
[32] = second compound 10 µM, first compound 0.1 µM
[33] = second compound 10 µM, first compound 0.316 µM
[34] = second compound 10 µM, first compound 1 µM
[35] = second compound 10 µM, first compound 3.16 µM
[36] = second compound 10 µM, first compound 10 µM
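Also: spheroids exposed to compounds for seven days before readout.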
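For viability, T/C in this document: 100% = DMSO vehicle control viability.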

C#Cc1c(F)ccc2cc(O)cc(-c3ncc4c(N5CC6CCC(C5)N6)nc(OCC56CCCN5CC(F)C6)nc4c3F)c12 (stereo unspecified) + Cc1cccc(N(C)C(=O)C2C(O)CCN2c2nc(C)cc(C(F)(F)F)c2C#N)c1
> 10 µM: IC50 (second compound 0.0316 µM) | IC50 (second compound 0.1 µM) | IC50 (second compound 0.316 µM) | IC50 (second compound 1 µM) | IC50 (second compound 3.16 µM) | IC50 (second compound 10 µM)
inactive: viability, T/C [1] 98.1% | viability, T/C [2] 109% | viability, T/C [3] 97.7% | viability, T/C [4] 95.1% | viability, T/C [5] 86.8% | viability, T/C [6] 70.1% | viability, T/C [7] 98% | viability, T/C [8] 104% | viability, T/C [9] 109% | viability, T/C [10] 89.8% | viability, T/C [11] 86.2% | viability, T/C [12] 81.4% | viability, T/C [13] 108% | viability, T/C [14] 101% | viability, T/C [15] 110% | viability, T/C [16] 100% | viability, T/C [17] 80.6% | viability, T/C [18] 77.6% | viability, T/C [19] 104% | viability, T/C [20] 99% | viability, T/C [21] 106% | viability, T/C [22] 89.9% | viability, T/C [23] 86.5% | viability, T/C [24] 72.2% | viability, T/C [25] 103% | viability, T/C [26] 101% | viability, T/C [27] 97.8% | viability, T/C [28] 94.5% | viability, T/C [29] 81.5% | viability, T/C [30] 78% | viability, T/C [31] 115% | viability, T/C [32] 102% | viability, T/C [33] 104% | viability, T/C [34] 106% | viability, T/C [35] 87.7% | viability, T/C [36] 76.2%

C=CC(=O)N1CCN(c2nc(=O)n(-c3c(C)ccnc3C(C)C)c3nc(-c4c(O)cccc4F)c(F)cc23)C(C)C1 (stereo unspecified) + Cc1cccc(N(C)C(=O)C2C(O)CCN2c2nc(C)cc(C(F)(F)F)c2C#N)c1
inactive: viability, T/C [1] 72.4% | viability, T/C [2] 66.9% | viability, T/C [3] 75.6% | viability, T/C [4] 84.9% | viability, T/C [5] 84.2% | viability, T/C [6] 73.4% | viability, T/C [7] 74.2% | viability, T/C [8] 79.3% | viability, T/C [9] 75.6% | viability, T/C [10] 80.8% | viability, T/C [11] 79.2% | viability, T/C [12] 81.3% | viability, T/C [13] 80.2% | viability, T/C [14] 62% | viability, T/C [15] 72% | viability, T/C [16] 82.8% | viability, T/C [17] 85.1% | viability, T/C [18] 87.2% | viability, T/C [19] 71.4% | viability, T/C [20] 66.2% | viability, T/C [21] 67.3% | viability, T/C [22] 83.2% | viability, T/C [23] 90.6% | viability, T/C [24] 79.9% | viability, T/C [25] 65% | viability, T/C [26] 59.8% | viability, T/C [27] 68.6% | viability, T/C [28] 76.1% | viability, T/C [29] 100% | viability, T/C [30] 78.3% | viability, T/C [31] 78.3% | viability, T/C [32] 77.3% | viability, T/C [33] 84% | viability, T/C [34] 86.6% | viability, T/C [35] 101% | viability, T/C [36] 82.7%
> 10 µM: IC50 (second compound 0.0316 µM) | IC50 (second compound 0.1 µM) | IC50 (second compound 0.316 µM) | IC50 (second compound 1 µM) | IC50 (second compound 3.16 µM) | IC50 (second compound 10 µM)

COc1cc2cc(C(=O)CCC(=O)O)sc2cc1OC + Cc1cccc(N(C)C(=O)C2C(O)CCN2c2nc(C)cc(C(F)(F)F)c2C#N)c1
inactive: viability, T/C [1] 99.1% | viability, T/C [2] 101% | viability, T/C [3] 109% | viability, T/C [4] 106% | viability, T/C [5] 101% | viability, T/C [6] 115% | viability, T/C [7] 98.3% | viability, T/C [8] 107% | viability, T/C [9] 111% | viability, T/C [10] 87.8% | viability, T/C [11] 95.6% | viability, T/C [12] 102% | viability, T/C [13] 115% | viability, T/C [14] 114% | viability, T/C [15] 89.5% | viability, T/C [16] 100% | viability, T/C [17] 95.9% | viability, T/C [18] 102% | viability, T/C [19] 91.7% | viability, T/C [20] 98.5% | viability, T/C [21] 90.2% | viability, T/C [22] 118% | viability, T/C [23] 92.8% | viability, T/C [24] 102% | viability, T/C [25] 94.9% | viability, T/C [26] 115% | viability, T/C [27] 116% | viability, T/C [28] 112% | viability, T/C [29] 112% | viability, T/C [30] 106% | viability, T/C [31] 121% | viability, T/C [32] 108% | viability, T/C [33] 122% | viability, T/C [34] 116% | viability, T/C [35] 119% | viability, T/C [36] 117%
> 10 µM: IC50 (second compound 0.0316 µM) | IC50 (second compound 0.1 µM) | IC50 (second compound 0.316 µM) | IC50 (second compound 1 µM) | IC50 (second compound 3.16 µM) | IC50 (second compound 10 µM)
